Data reported in ChEMBL document CHEMBL1201862, “PubChem BioAssay data set” (2004).
One block for each molecule: values may come before it. Calls of active or inactive are those of the source.

Columns and labels:
[1] = molecular target: T1, Tyrosine-protein phosphatase non-receptor type 7 (Homo sapiens, UniProt P35236); assay: HePTP (PTPN7) phosphatase inhibitor potency, SAR follow-up, biochemical, set 2 (AID 449736); type: functional
T1 sequence (P35236 whole entry): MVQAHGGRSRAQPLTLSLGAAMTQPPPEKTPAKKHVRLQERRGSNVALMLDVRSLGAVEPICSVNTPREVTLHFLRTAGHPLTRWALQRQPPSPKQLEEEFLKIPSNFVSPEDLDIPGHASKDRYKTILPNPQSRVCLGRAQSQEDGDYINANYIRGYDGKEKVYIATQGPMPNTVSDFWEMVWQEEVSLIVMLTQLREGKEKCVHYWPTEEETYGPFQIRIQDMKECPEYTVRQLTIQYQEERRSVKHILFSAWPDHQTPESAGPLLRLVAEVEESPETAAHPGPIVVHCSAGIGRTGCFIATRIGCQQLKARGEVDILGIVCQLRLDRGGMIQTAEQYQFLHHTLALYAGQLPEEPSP

Aminopeptidase N = molecular target: T2, Aminopeptidase N (Plasmodium falciparum FcB1/Columbia, UniProt O96935); assay: P. falciparum M1AAP inhibitors, biochemical, fluorogenic H-Leu-NHMec substrate, 1536-well (AID 1445); design: species or system Plasmodium falciparum 3D7, 3D7
T2 sequence (O96935 whole entry): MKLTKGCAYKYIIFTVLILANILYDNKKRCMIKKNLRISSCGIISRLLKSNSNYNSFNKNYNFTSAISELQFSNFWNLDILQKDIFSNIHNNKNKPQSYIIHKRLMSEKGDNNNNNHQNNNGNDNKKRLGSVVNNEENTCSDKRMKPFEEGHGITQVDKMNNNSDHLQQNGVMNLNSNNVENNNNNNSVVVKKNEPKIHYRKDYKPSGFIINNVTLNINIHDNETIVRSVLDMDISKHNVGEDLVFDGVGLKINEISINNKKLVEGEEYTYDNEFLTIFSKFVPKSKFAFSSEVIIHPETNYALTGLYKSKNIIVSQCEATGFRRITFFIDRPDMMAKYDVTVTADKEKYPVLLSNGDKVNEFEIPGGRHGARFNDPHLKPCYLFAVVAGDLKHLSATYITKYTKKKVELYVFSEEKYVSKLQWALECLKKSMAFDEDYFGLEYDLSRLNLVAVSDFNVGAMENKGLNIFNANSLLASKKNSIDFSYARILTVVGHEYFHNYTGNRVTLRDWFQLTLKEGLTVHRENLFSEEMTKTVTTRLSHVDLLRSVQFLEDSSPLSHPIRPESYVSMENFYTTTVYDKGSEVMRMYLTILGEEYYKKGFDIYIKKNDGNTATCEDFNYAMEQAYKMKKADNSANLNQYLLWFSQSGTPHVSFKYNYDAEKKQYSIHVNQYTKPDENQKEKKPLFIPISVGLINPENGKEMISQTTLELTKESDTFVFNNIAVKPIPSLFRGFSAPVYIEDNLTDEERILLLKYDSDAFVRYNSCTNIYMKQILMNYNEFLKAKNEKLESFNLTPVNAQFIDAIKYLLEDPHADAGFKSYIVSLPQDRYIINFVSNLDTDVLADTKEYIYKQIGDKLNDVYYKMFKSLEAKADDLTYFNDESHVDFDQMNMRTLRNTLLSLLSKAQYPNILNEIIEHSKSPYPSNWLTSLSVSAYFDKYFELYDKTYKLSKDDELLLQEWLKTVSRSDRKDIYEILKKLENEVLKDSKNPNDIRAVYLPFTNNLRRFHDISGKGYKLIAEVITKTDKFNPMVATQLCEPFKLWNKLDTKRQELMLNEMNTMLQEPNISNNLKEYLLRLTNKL

[2] = molecular target: T3, Runt-related transcription factor 1/Core-binding factor subunit beta (Homo sapiens, UniProt Q01196+Q13951); assay: inhibitors of RUNX1 Runt–CBFb-SMMHC binding, primary screen, biochemical, FRET, Cerulean-Runt, Venus-CBFb-SMMHC, uHTS (AID 1434); type: protein assay;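 further: partner is the CBFb-SMMHC leukemia fusion protein rather than wild-type CBFb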
[3] = molecular target: T3, Runt-related transcription factor 1/Core-binding factor subunit beta; assay: inhibitors of RUNX1 Runt–CBFb-SMMHC binding, biochemical, TR-FRET (AID 1438); type: protein assay
Cytochrome P450 2D6 = Cytochrome P450 2D6 (Homo sapiens, UniProt P10635);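 further: CYP2D6 member of a cytochrome P450 panel assay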
Cytochrome P450 1A2 = molecular target: T4, Cytochrome P450 1A2 (Homo sapiens, UniProt P05177);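 further: PubChem cytochrome P450 panel assay, CYP1A2 panel member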
T4 sequence (P05177 whole entry): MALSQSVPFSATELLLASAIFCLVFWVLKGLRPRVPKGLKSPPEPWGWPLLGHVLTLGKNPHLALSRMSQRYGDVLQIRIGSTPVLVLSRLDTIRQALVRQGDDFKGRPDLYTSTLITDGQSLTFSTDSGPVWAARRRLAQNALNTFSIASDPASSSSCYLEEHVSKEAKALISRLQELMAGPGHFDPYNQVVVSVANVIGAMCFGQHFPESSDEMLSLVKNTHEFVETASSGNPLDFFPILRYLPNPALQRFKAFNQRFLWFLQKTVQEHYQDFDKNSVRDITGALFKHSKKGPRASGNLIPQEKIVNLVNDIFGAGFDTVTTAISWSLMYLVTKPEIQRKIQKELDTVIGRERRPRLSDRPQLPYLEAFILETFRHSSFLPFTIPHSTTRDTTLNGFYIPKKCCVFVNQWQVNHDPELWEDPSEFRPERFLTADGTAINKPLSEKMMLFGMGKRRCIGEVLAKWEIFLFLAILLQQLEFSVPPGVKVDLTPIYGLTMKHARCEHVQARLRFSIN

Jurkat = assay: SAR Analysis of small molecule inhibitors of […] specific antigen receptor-induced NF-kB activation in a Jurkat cell line using a luminescence assay - Set 3. [Related pubchem assays (depositor defined):AID435022, AID435025, AID465]; type: functional, cell-based; details: Homo sapiens
HEK293 [4] = assay: SAR Analysis of small molecule inhibitors of B-cell specific antigen receptor-induced NF-kB activation in a HEK-293T cell line using a luminescence assay - Set 2. [Related pubchem assays (depositor defined):AID435022, AID435025, AID489021]; type: functional, cell-based; details: Homo sapiens
HEK293 [5] = assay: cytotoxicity in HEK293T NF-kB-Luc cells, SAR follow-up, cytotoxicity control for NF-kB activator project, cell-based, resazurin fluorescence (AID 493251); type: functional; details: Homo sapiens
[6] = molecular target: T5, Intestinal-type alkaline phosphatase (Homo sapiens, UniProt P09923); assay: Dose Response confirmation of uHTS hits from a small molecule inhibitors of human intestinal alkaline phosphatase via a luminescent assay. [Related pubchem assays (depositor defined):AID2544, AID2574]; type: functional
[7] = molecular target: T5, Intestinal-type alkaline phosphatase; assay: human intestinal alkaline phosphatase activators, dose response, biochemical, luminescence, uHTS hits (AID 463120); type: functional
[8] = Luminescence Cell-Based Dose Retest to Confirm Inhibitors of Cancer Stem Cells. [Related pubchem assays (depositor defined):AID2717, AID2721]; type: functional; details: Homo sapiens
[9] = cytotoxicity in HMLE control line with eGFP shRNA, dose response, counter-screen for HMLE_sh_ECad selective toxicity project, cell-based, HMLE_sh_eGFP, luminescence (AID 463074); type: functional, Homo sapiens;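 further: HMLE human mammary epithelial cells expressing control shRNA against eGFP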

T3 sequence (Q01196 whole entry, the tested form may be a part): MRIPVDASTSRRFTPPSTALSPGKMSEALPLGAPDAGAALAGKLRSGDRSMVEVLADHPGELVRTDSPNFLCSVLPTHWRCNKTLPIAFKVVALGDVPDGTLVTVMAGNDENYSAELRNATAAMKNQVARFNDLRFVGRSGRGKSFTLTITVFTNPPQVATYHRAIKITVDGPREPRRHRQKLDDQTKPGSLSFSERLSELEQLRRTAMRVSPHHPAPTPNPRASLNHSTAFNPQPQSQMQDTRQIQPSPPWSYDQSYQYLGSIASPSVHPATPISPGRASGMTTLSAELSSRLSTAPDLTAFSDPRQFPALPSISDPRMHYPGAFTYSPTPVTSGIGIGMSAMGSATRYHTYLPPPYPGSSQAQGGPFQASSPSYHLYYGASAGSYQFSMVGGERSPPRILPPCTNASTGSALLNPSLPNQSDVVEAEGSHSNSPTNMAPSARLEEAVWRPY
T3 sequence (Q13951 whole entry, the tested form may be a part): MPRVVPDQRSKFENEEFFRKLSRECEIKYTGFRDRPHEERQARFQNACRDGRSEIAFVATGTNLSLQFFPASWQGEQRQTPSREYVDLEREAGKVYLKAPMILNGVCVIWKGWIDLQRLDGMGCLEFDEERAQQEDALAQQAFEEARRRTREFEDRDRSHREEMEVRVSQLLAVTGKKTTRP
T5 sequence (P09923 whole entry): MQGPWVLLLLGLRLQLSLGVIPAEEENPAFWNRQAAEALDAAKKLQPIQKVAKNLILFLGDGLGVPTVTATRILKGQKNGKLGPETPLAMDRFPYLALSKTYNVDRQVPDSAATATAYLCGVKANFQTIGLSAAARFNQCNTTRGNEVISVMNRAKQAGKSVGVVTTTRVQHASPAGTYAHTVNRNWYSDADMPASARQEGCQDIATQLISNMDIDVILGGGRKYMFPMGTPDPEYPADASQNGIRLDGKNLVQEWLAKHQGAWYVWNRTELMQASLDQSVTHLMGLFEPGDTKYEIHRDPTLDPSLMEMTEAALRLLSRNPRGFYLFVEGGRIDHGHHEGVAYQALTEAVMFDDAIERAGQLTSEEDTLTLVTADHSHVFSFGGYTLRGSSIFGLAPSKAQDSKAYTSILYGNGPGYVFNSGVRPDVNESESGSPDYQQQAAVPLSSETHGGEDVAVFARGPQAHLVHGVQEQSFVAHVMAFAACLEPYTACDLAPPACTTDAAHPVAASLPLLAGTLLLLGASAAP
Cytochrome P450 2D6, sequence (P10635 whole entry): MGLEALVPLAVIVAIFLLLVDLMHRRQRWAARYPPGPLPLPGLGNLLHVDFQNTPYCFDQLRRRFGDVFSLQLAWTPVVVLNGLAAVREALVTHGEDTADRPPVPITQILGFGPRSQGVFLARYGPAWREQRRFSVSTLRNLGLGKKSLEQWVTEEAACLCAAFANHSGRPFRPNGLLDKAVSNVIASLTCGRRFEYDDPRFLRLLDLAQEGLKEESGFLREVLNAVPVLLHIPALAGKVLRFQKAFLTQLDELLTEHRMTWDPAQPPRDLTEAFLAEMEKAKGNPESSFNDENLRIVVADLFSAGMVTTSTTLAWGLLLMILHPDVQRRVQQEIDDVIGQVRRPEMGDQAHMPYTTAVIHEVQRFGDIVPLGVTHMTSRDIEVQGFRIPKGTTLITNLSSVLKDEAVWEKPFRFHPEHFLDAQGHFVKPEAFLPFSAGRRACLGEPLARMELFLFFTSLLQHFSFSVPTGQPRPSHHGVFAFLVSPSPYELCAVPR

- IC50 [1]: 66.5 µM (active)
SMILES: NS(=O)(=O)c1ccc(NC(=S)NC2CCCc3ccccc32)cc1 (stereo not drawn)

SMILES: CC(C)OCCCn1c(-c2ccco2)nc2nc3ccccc3nc21
- IC50 (Aminopeptidase N): 92.6 µM (active)
- IC50 [2]: 7.07 µM (active)
- IC50 [3]: > 100 µM (inactive)

- AC50 (Cytochrome P450 2D6): 6.31 µM (active)
- AC50 (Cytochrome P450 1A2): inactive
SMILES: Nc1nnc(-c2cccc(Cl)c2Cl)c(N)n1 [LAMOTRIGINE]

SMILES: CCOc1ccc(-c2nc(CSCC(=O)NC3CCCC(C)C3C)c(C)o2)cc1 (stereo not drawn)
- IC50 (Jurkat): 39.3 µM (inactive)
- IC50 (HEK293 [4]): 8.81 µM (active)
- IC50 (HEK293 [5]): 38.9 µM (inactive)

- IC50 [6]: > 100 µM (inactive)
- EC50 [7]: > 100 µM (inactive)
SMILES: CCC(OC(=O)C1=Cc2ccccc2OC1)C(=O)NC1CCCC1 (stereo not drawn)

SMILES: C/C(=N\Nc1cccc(Cl)c1)C1(C)N(O)C(C)(C)C(c2ccco2)=[N+]1[O-] (stereo not drawn)
- AC50 [8]: 1.06 µM (active)
- AC50 [9]: 1.5 µM (inconclusive)
